Reference: US9243278B2, “Mechanotransduction by the synergistic action of heterotypic cell interactions” (Brown University, priority 2011, dated 2016)
Entries after “also recorded” stand apart in the source; their conditions may differ.

How the values were obtained:
[1] = test system: 1:1 (NHF:H35) microtissues; details: cultured four hours, then overnight at 37° C. in 5 mM EDTA in PBS
Description: To determine if extracellular calcium disintegrated the microtissues, 1:1 (NHF: H35) microtissues were cultured for 4 hours. Culture media was removed, and microtissues were washed with PBS, and then incubated overnight at 37° C. in 5 mM EDTA in PBS. Control samples were kept in regular culture media or PBS.
To examine if enhanced power was transduced through cell-cell interactions 1:1 (NHF:H35) were cultured for four hours and then incubated in EDTA to destabilize the calcium dependent cell-cell adhesions. Control samples were kept in regular culture media or PBS.

[2] = test system: normal human fibroblasts (NHF); test: toroid-on-cone cell power assay, homotypic NHF toroids; type: cell-based
Description: (§1) Toroid molds suitable for side view microcopy were designed as previously described (9). Toroid molds were designed using the computer aided design (CAD) software Solid Works (Solid Works Corporation, Concord, Mass., USA). The mold was designed with 12 features to create wells. Each feature is a rounded edged (350 μm in diameter) cylinder (1.1 mm) with a cone indent in the center. The slope of the central cone was 65° and it is 650 μm in diameter. CAD files were used to produce thermowax molds with a rapid prototyping machine (3D Systems Corporation, Valencia, Calif.).
(§2) Wax molds were used to cast 13% polyacrylamide gels. Gels were removed from wax molds and transferred to six well culture plates. Each of the resulting wells is a circular trough confined by the hydrogel wall at the outer edge of the trough and by a conical peg on the inner edge of the trough. The gels were rinsed with fresh culture medium and then equilibrated overnight at 37° C. in 4 ml of DMEM supplemented with 1% penicillin/streptomycin (pen/strep). After equilibration, the medium was removed, and the gels were rinsed with fresh medium.
NHFs (passage 4-10), derived from neonatal foreskins, and H35s (passage 5-11) were grown in T-175 flasks in DMEM with 10% FBS and 1% pen/strep at 37° C. and 10% CO2. Cells were removed from flasks using a standard trypsin process. Briefly, cells were exposed to 0.05% trypsin for 10 minutes, quenched with serum containing medium, spun down at 800 rpm for 6 minutes, resuspended in a known volume of medium, and counted using a hemocytometer. Cell solution (70 μl) was added to each hydrogel. After 30 minutes, 4 ml of fresh medium was added to each of the wells. After seeding, images of the samples were taken every 2 hours for about 8 hours. Pure NHF microtissues were seeded with about 10,500, about 21,000, about 25,000 or about 35,000 cells/well. Heterotypic microtissues were seeded at ratios of about 1:1, about 2:3, about 1:4; about 1:6, about 1:10, about 1:16, and about 1:20 (NHF:H35). The seeding per well for heterotypic samples was kept constant at about 21,000 cells/well. For TGF-β1 experiments, NHFs and H35s were incubated for 48 hours in DMEM with 10% FBS, 1% penn/strep and 5 ng/ml human recombinant TGF-β1 (Invitrogen, Carlsbad, Calif., USA), passed according to standard protocol, and seeded at about 21,000 cells/well. NHFs^TGF-β1 coseeded with H35s were seeded in DMEM with 10% FBS, 1% penn/strep without additional TGF-β1. […]
(§3) Convential view fluorescent and phase images were captured using Carl Zeiss Axio Observer Z1 with an AxioCam Mrm camera (Carl Zeiss MicroImaging, Thornwood, N.Y., USA). To capture side view images, a Mitutoyo FS-110 microscope was modified to lie on its back and a translational stage was added to hold samples. Samples were imaged in bright field through the eyepiece of the microscope. ImageJ Software (NIH Rasband, W.S. USA) was used to measure the height of the toroid, the major radius, and the minor radius of the toroid.
(§4) The range of power exerted by increasing numbers of NHFs (>3 fold) in a homotypic environment by seeding the cells into non-adhesive hydrogels with toroid recesses, each with a central cone (65° slope) was measured. Cells settled and formed cell-cell adhesions that drove the toroid shaped microtissue up the cone. The power necessary to move the NHF toroid up the cone as P=ΔW/Δt was calculated, where ΔW is work performed against gravity to move a toroid of a known mass to a given height, and Δt is the time over which the work is performed (9). […] Toroid power increased linearly as cell number increased, but power per NHF (cell power) was independent of cell number, with a peak cell power of 0.22±0.02 fJ/hr (2 hrs) and an average cell power (over all time points) of 0.16±0.03 fJ/hr.

[3] = test system: rat hepatocyte cell line (H35); test: toroid-on-cone cell power assay, homotypic H35 toroids; type: cell-based
Description: as §1, §2
(§5) NHFs (passage 4-10), derived from neonatal foreskins, and H35s (passage 5-11) were grown in T-175 flasks in DMEM with 10% FBS and 1% pen/strep at 37° C. and 10% CO2. Cells were removed from flasks using a standard trypsin process. Briefly, cells were exposed to 0.05% trypsin for 10 minutes, quenched with serum containing medium, spun down at 800 rpm for 6 minutes, resuspended in a known volume of medium, and counted using a hemocytometer. Cell solution (70 μl) was added to each hydrogel. After 30 minutes, 4 ml of fresh medium was added to each of the wells. After seeding, images of the samples were taken every 2 hours for about 8 hours. Pure NHF microtissues were seeded with about 10,500, about 21,000, about 25,000 or about 35,000 cells/well. Heterotypic microtissues were seeded at ratios of about 1:1, about 2:3, about 1:4; about 1:6, about 1:10, about 1:16, and about 1:20 (NHF:H35). The seeding per well for heterotypic samples was kept constant at about 21,000 cells/well. For TGF-β1 experiments, NHFs and H35s were incubated for 48 hours in DMEM with 10% FBS, 1% penn/strep and 5 ng/ml human recombinant TGF-β1 (Invitrogen, Carlsbad, Calif., USA), passed according to standard protocol, and seeded at about 21,000 cells/well. NHFs^TGF-β1 coseeded with H35s were seeded in DMEM with 10% FBS, 1% penn/strep without additional TGF-β1.
To investigate the effect of paracrine factors, media from homotypic toroids containing about 10,500 H35s and from homotypic toroids containing about 10,500 NHFs was collected. The conditioned media was seeded about 10,500 NHFs with the media collected from the H35s and also seeded about 10,500 H35s with the media collected from the NHFs. Power was analyzed at four hours since this is the time enhanced power for heterotypic toroids which contained about 10,500 H35s and about 10,500 NHFs (1:1 samples).
(§6) Convential view fluorescent and phase images were captured using Carl Zeiss Axio Observer Z1 with an AxioCam Mrm camera (Carl Zeiss MicroImaging, Thornwood, N.Y., USA). To capture side view images, a Mitutoyo FS-110 microscope was modified to lie on its back and a translational stage was added to hold samples. […]
The range of power exerted by increasing numbers of NHFs (>3 fold) in a homotypic environment by seeding the cells into non-adhesive hydrogels with toroid recesses, each with a central cone (65° slope) was measured. […]

[4] = test system: heterotypic toroids of NHFs and H35s; test: toroid-on-cone cell power assay, heterotypic NHF:H35 toroids; type: cell-based, human, rat
Description: as §1, §2, §5, §3, §4
The data shown in Table 1 show heterotypic toroids have enhanced power. […]

NHFs and H35s = test: self-sorting of fluorescently labeled NHFs and H35s in microtissues; type: cell-based, human, rat
Description: For sorting experiments, NHFs and H35s were incubated with 2.5 μM CellTracker™ Red CMPTX and CellTracker™ Green CMFDA™ (Invitrogen, Carlsbad, Calif., USA), respectively, in serum free media for 30 minutes. After incubation, the dye was aspirated and the cells equilibrated in serum media for 1 hour prior to passing. For NHF^TGF-β1:H35 sorting experiments NHFs were incubated for 48 hours in DMEM with 10% FBS, 1% penn/strep and 5 ng/ml TGF-β1. After incubation the NHF^TGF-β1 and H35s were fluorescently labeled and passed as previously described.
as §6, with “samples. Samples were imaged in bright field through the eyepiece of the microscope.” for “samples.”
Using self sorting to identify drugs, TGF-β1 is a growth factor linked to fibrosis and well known for its ability to increase cell mediated contraction and synthesis of extracellular matrix proteins such as collagen. […] Also, as self-sorting proceeds the quantity of heterotypic interface decreases and the homotypic interface increases as cells partition. […]

[5] = homotypic toroid 100% NHF^TGF-β
[6] = H35^TGF-β1 homotypic toroid, 24 hours

O=C(O)CN(CCN(CC(=O)O)CC(=O)O)CC(=O)O [EDTA]
microtissue integrity [1]: disintegrated into monodispersed cells

transforming growth factor-β1 [TGF-β1]
height of the NHF^TGF-β1 toroid relative to untreated NHFs ([2]; 2 hours, NHFs treated 48 hours in 5 ng/ml TGF-β1): twice as far; also recorded: increased two fold | average cell power ([2]; NHF^TGF-β1): 0.16 ± 0.21 fJ/h | peak cell power ([2]; NHF^TGF-β1, 2 hrs): 0.47 fJ/h | Toroid Power ([2]; NHF^TGF-β1 homotypic toroid, two hours): 9.82 ± 1.32 pJ/h | increase in NHF cell power in the homotypic environment ([2]; TGF-β treatment alone): about 1.9 fold | change in NHF cell power relative to untreated controls (in words) ([2]; homotypic NHF toroids treated with TGF-β1): doubling in cell power; also recorded: increased only two fold; also recorded: doubled; also recorded: doubles cell power | Enhancement in NHF Cell Power [2, 5]: 0.23 fJ/hr/NHF | Toroid Power [2, 5]: 9.80 pJ/h | Enhancement in Toroid Power ([2]; homotypic toroid 100% NHF^TGF-β versus control): 4.7 pJ/h | Fold Increase in NHF Cell Power ([2]; homotypic toroid 100% NHF^TGF-β, effects of TGF-β alone): 1.9x | Toroid Power [3, 6]: 0.45 ± 0.08 pJ/h | cell power [3, 6]: 0.022 ± 0.004 fJ/h | change in H35 power compared to untreated controls ([3]; homotypic H35 toroids treated with TGF-β1): doubled | Toroid Power ([3]; homotypic toroid 100% H35^TGF-β): 0.45 pJ/h | Enhancement in Toroid Power ([3]; homotypic toroid 100% H35^TGF-β versus control): 0.19 pJ/h | H35 has Enhanced Power ([4]; 1:1 (NHF^TGF-β:H35)): 0.11 fJ/hr per H35 | NHF has Enhanced Power ([4]; 1:1 (NHF^TGF-β:H35)): 0.58 fJ/hr per NHF | Relative Increase in NHF Cell Power ([4]; 1:1 (NHF^TGF-β:H35)): 2.4x | Measured Toroid Power ([4]; 1:1 (NHF^TGF-β:H35), at time of peak power, NHFs pretreated 48 hours with 5 ng/ml TGF-β1): 6.05 pJ/h | Enhanced Toroid Power ([4]; 1:1 (NHF^TGF-β:H35), measured minus projected): 1.16 pJ/h | Projected Toroid Power ([4]; 1:1 (NHF^TGF-β:H35), power per TGF-β treated NHF x number of NHFs): 4.90 pJ/h | toroid height relative to respective control ([4]; 1:1 NHF^TGF-β1 mixed with untreated H35s): 1.4 times | Enhanced Toroid Power ([4]; 1:10 (NHF^TGF-β:H35)): 4.41 pJ/h | H35 has Enhanced Power ([4]; 1:10 (NHF^TGF-β:H35)): 0.23 fJ/hr per H35 | NHF has Enhanced Power ([4]; 1:10 (NHF^TGF-β:H35)): 5.30 fJ/hr per NHF | Projected Toroid Power ([4]; 1:10 (NHF^TGF-β:H35)): 0.89 pJ/h | Relative Increase in NHF Cell Power ([4]; 1:10 (NHF^TGF-β:H35)): 22.1x | Measured Toroid Power ([4]; 1:10 (NHF^TGF-β:H35), peak power, combination of 6 and 8 hours): 5.30 pJ/h | toroid height relative to respective control ([4]; 1:10 NHF^TGF-β1 mixed with untreated H35s): 4.4 times | Enhanced Toroid Power ([4]; 1:20 (NHF^TGF-β:H35)): 3.63 pJ/h | H35 has Enhanced Power ([4]; 1:20 (NHF^TGF-β:H35)): 0.18 fJ/hr per H35 | NHF has Enhanced Power ([4]; 1:20 (NHF^TGF-β:H35)): 4.13 fJ/hr per NHF | Projected Toroid Power ([4]; 1:20 (NHF^TGF-β:H35)): 0.47 pJ/h | Relative Increase in NHF Cell Power ([4]; 1:20 (NHF^TGF-β:H35)): 17.2x | Measured Toroid Power ([4]; 1:20 (NHF^TGF-β:H35), at time of peak power): 4.10 pJ/h | toroid height relative to respective control ([4]; 1:20 NHF^TGF-β1 mixed with untreated H35s): 6.3 times | Enhancement in NHF Cell Power ([4]; 5%:95% (NHF^TGF-β:H35)): 4.13 fJ/hr/NHF | Enhancement in Toroid Power ([4]; 5%:95% (NHF^TGF-β:H35)): 3.63 pJ/h | Fold Increase in NHF Cell Power ([4]; 5%:95% (NHF^TGF-β:H35)): 17.2x | Toroid Power ([4]; 5%:95% (NHF^TGF-β:H35)): 4.10 pJ/h | Enhancement in NHF Cell Power ([4]; 10%:90% (NHF^TGF-β:H35)): 5.30 fJ/hr/NHF | Enhancement in Toroid Power ([4]; 10%:90% (NHF^TGF-β:H35)): 4.41 pJ/h | Toroid Power ([4]; 10%:90% (NHF^TGF-β:H35)): 5.30 pJ/h | Fold Increase in NHF Cell Power ([4]; 10%:90% (NHF^TGF-β:H35), effects of TGF-β & hetero environment): 22.1x | Enhancement in NHF Cell Power ([4]; 50%:50% (NHF^TGF-β:H35)): 0.58 fJ/hr/NHF | Enhancement in Toroid Power ([4]; 50%:50% (NHF^TGF-β:H35)): 1.16 pJ/h | Fold Increase in NHF Cell Power ([4]; 50%:50% (NHF^TGF-β:H35)): 2.4x | Toroid Power ([4]; 50%:50% (NHF^TGF-β:H35)): 6.05 pJ/h | total cell power ([4]; NHF^TGF-β1, about 1:10 mix, between four and eight hours): 5.3 ± 1.32 fJ/h | peak cell power ([4]; NHF^TGF-β1, about 1:20 mix): 4.13 ± 1.22 fJ/h | increase in cell power, heterotypic environment and TGF-β1 ([4]; TGF-β1 treated NHFs with untreated H35s, enhanced power distributed to NHFs): 22 × | increase in cell power, TGF-β1 treatment in conjunction with the heterotypic environment ([4]; compared to untreated NHFs in a homotypic toroid): greater than 22 times | increase in NHF cell power, TGF-β1 treatment combined with heterotypic environment ([4]; compared to untreated NHFs in homotypic toroid, 10% NHFs: 90% H35s): about 22.1 fold | increase of NHF^TGF-β1 cell power in the heterotypic environment ([4]; versus NHF^TGF-β1 in homotypic environment): greater than 11 times | self-sorting of NHFs and H35s in heterotypic toroids (NHFs and H35s; NHF^TGF-β1:H35 toroids (1:10), up to 24 hours): prevented sorting; also recorded: reduced; also recorded: sorting was eliminated | self-sorting of NHFs and H35s in spheroids (NHFs and H35s; mixes (1:1) of NHFs and H35s treated with TGF-β1): inhibited self-sorting
